Each structure is given as a SMILES string. Counter-ions that a name gives are not always drawn.

Here are results for one compound from patent US20040157911A1, “Storage-stable and bio-stable formulations of ace inhibitors, and methods for preparation thereof” (priority 1999, published 2004).

The data set is described as follows: Dispersion time of enalapril maleate in alcohol/water liquids. It counts as physicochemical. To be noted: for Dispersion Time: 50 g in 200 mL, 200 rpm. The method, then: Enalapril maleate (50 grams) was added to 200 mL of liquid. The liquid ranged from 100% alcohol/0% water to 0% alcohol/100% water (see Table 1). The solutions were stirred at 200 rpm at room temperature using a Lightning Mixer (General Signal Controls, Rochester, N.Y.) with the mixing blade 1 cm from the bottom of the beaker. Enalapril maleate was considered “dispersed” when all of the drug powder was wetted and had become immersed in the liquid.

For `CCOC(=O)[C@H](CCc1ccccc1)N[C@@H](C)C(=O)N1CCC[C@H]1C(=O)O` [enalapril maleate], the “Time to full dispersion in alcohol” value (20 mg/ud in SD3A denatured alcohol (50 mg/ud), stirring at 500 rpm (preparation of Formula I)) was “less than 10 seconds”. For the same compound, the “Dispersion Time” value is, setting by setting: (25%/75% alcohol/water, full value 1 minute, 15 seconds (seconds in next row)) 60 s; (50%/50% alcohol/water, room temperature) 45 s; (75%/25% alcohol/water, room temperature) 30 s; (85%/15% alcohol/water, room temperature) 28 s; (100%/0% alcohol/water, room temperature) 27 s.
